From patent publication US11673878B2, “Benzazepine derivatives” (OTSUKA PHARMACEUTICAL CO., LTD., priority 2017, dated 2023)

How the values were obtained:
[1] = Pharmacokinetics study in mice, single oral dose; type: in vivo; details: mouse; male ICR mice, single-dose oral administration of 30 mg/kg, plasma
Method: A pharmacokinetics (PK) study was performed using male ICR mice to compare the oral absorption properties of the present compounds with tolvaptan. A test compound was suspended in a 1% hydroxypropyl methylcellulose (HPMC) solution to be adjusted to the concentration of 4.5 mg/mL. The present compounds were used as the forms obtained in the above examples (including the amorphous form) for a test compound, or used after spray drying, if needed.
Male ICR mice (7-week old) were freely fed food and water and weighed on an electronic scale. Then, a test compound was orally administered at the dose of 30 mg/kg […]. After the oral administration, blood was collected from the abdominal vena cava under isoflurane anesthesia using a 1 mL heparinized syringe with a 26 G injection needle. Blood was separated by centrifugation at 4° C., 3000 rpm for 10 minutes to give plasma in a supernatant. The plasma concentration of a test compound was measured by LC-MS/MS.
The following PK parameters were calculated using the mean plasma concentrations of unchanged substances obtained from two animals at each time point.
Cmax: Maximum plasma concentration (μg/mL)
tmax: Time-to-maximum plasma concentration (h)
AUCinf: Area under the plasma concentration-time curve from administration to infinite time (μg h/mL)

[2] = Metabolic stability test in human liver microsomes; type: in vitro ADME; details: pH 7.4; human liver microsomes 1 mg/mL, test compound 1 μmol/L, NADPH and NADH, 37° C., n = 4; read-out: CLint (μL/min/mg) mean ± SD
Method: Reaction System and Incubation
According to methods of Obach and Jones, et al. (methods described in R. S. Obach, Drug Metab. Dispos. 1999 (27): 1350-1359 and H. Jones and J. B. Houston, Drug Metab. Dispos. 2004 (32): 973-982), the reaction system shown below was prepared and metabolic stabilities of test compounds (the present compounds and, tolvaptan) were evaluated using the reaction system shown below. Human liver microsomes purchased from Corning Inc. were used. Test compounds were dissolved in DMSO at the concentration of 10 mmol/L and then diluted with acetonitrile to prepare a 100 μmol/L solution for use in the test. The 100 μmol/L solutions were used in the experiment.
Human liver microsome 1 mg/mL
Co-factor (NADPH and NADH) 1 mmol/L each
Magnesium chloride 5 mmol/L
100 mmol/L Potassium phosphate buffer (pH 7.4)
The reaction mixture without co-factors was pre-incubated at 37° C. for 5 minutes, and then the reaction was initiated by the addition of the co-factors. The mixture was incubated for 0, 5, 10, 20, 30, and 60 minutes after the addition of the co-factors. An aliquot of the reaction mixture was removed and added to a methanol solution containing an internal standard (IS) and mixed to terminate the reaction at each predetermined time.
After the reaction was terminated, the mixture was separated by centrifugation and the supernatant was injected into a liquid chromatograph-tandem mass spectrometer (LC-MS/MS) to measure unchanged substances remained in the reaction system. The mass spectrometer was operated in a positive ion mode of the electrospray ionization (ESI) method. Unchanged substances and the IS were detected by multiple reaction monitoring (MRM) transitions using selected precursor and product ions set.
The remaining ratios of test compounds were calculated by the following equation. Remaining ratio=(Peak area ratio of a test compound to IS at t minutes after incubation)÷(Peak area ratio of a test compound to IS at 0 minute)
The slope of X-axis (the incubation time) and Y-axis (logarithm of the remaining ratio) was calculated by a non-linear least square method. Hepatic intrinsic clearance (CLint) was calculated by the following equation. CLint(μL/min/mg)=−(Slope(min^−1))÷1(mg/mL)×1000

[3] = target: T1, rat vasopressin V1a receptor (Rattus norvegicus, UniProt P30560); experiment: Binding inhibition test for rat V1a receptor (3H-AVP, rat hepatic membrane); details: inhibition of 3H-AVP binding, rat hepatic membrane V1a receptor fractions, 4° C., 2 hours; read-out: Binding affinity rV1a (IC50)
T1 construct: V1a receptor fractions derived from rat hepatic membrane; from tissue; host or cells: rat liver (hepatic membrane)
T1 sequence (P30560 whole entry): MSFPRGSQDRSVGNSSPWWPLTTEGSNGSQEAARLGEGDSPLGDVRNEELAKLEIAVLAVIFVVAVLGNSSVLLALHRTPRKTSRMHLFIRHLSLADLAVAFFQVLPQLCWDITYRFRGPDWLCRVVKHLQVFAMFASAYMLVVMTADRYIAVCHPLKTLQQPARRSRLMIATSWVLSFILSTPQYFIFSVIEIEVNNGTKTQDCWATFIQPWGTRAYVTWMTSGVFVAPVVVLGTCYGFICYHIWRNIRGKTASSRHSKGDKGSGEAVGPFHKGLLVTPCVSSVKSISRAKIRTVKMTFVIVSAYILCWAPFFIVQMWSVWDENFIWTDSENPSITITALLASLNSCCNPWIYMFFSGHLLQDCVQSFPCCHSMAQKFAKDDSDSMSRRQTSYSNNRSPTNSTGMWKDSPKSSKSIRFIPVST
Method: (§1) Various compounds were studied in binding affinities for vasopressin receptors with an indicator of binding inhibition of rat vasopressin V1a receptor and vasopressin V2 receptor of ^3H-arginine vasopressin (AVP) (NET800, available from PerkinElmer Inc., Life Sciences).
(1) Binding Inhibition Test for Rat V1a Receptor (rV1aR)
50 μg of V1a receptor fractions derived from rat hepatic membrane were diluted with a reaction solution (100 mM Tris-HCl (pH 8.0), 0.1% BSA, 5 mM MgCl2, 1 mM EDTA) and added to each well of a 96-well plate. A compound was added to each well in various concentrations (0.3 nM to 100 nM), and ^3H-AVP was added thereto in the range of 1 nM to 3 nM. Reactions were carried out at 4° C. for 2 hours on the plate. Via receptor fractions were collected with a 96-well glass filter (Unifilter GF/B) after the reactions and washed with a washing solution (10 mM Tris-HCl (pH 8.0), 5 mM MgCl2, 1 mM EDTA) three times, and then the radioactivity of ^3H-AVP was measured with a scintillation counter.
(§2) ^3H-AVP binding rate in the presence of a compound was calculated by the following equation. Binding rate (%)=(B−NSB)/(TB−NSB)×100 (B: Binding amount of ^3H-AVP in the presence of each compound, NSB: Binding amount of ^3H-AVP in the presence of 1 μM of unlabeled AVP, TB: Binding amount of ^3H-AVP in the absence of 1 μM of unlabeled AVP)

[4] = target: T2, rat vasopressin V2 receptor (Rattus norvegicus, UniProt Q00788); experiment: Binding inhibition test for rat V2 receptor (3H-AVP, rV2R-CHO cells); details: inhibition of 3H-AVP binding, 4° C., 2 hours, read-out: Binding affinity rV2 (IC50)
T2 construct: expressed in transfected cells; host or cells: CHO cells (rV2R-CHO)
T2 sequence (Q00788 whole entry): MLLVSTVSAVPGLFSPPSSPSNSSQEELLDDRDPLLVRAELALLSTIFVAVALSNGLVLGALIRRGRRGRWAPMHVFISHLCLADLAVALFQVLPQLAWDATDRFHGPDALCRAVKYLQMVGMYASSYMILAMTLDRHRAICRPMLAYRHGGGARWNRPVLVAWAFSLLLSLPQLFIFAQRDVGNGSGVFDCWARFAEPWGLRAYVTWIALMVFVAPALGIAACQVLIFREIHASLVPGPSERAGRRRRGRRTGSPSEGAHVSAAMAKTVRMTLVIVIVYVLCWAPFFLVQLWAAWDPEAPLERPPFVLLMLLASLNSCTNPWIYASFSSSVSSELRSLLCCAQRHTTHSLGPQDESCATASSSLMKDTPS
Method: as §1
(2) Binding Inhibition Test for Rat V2 Receptor (rV2R)
Rat V2 receptor-expressed CHO cells (rV2R—CHO) were incubated on 10% FBS-containing DMEM/F12 in a 24-well plate, and each cell was washed with D-PBS twice. A reaction solution (D-PBS containing 0.1% BSA and 0.05% sodium azide) comprising a compound in various concentrations (0.3 nM to 100 nM) was added to each well, and a certain amount of ^3H-AVP was added thereto (100-fold dilution). Reactions were carried out at 4° C. for 2 hours on the plate. Then, each well was washed with D-PBS twice and 0.1N NaOH was added to each well. The cells were collected, and the radioactivity of ^3H-AVP was measured with a scintillation counter.
as §2

Compound	AUC(0-inf) [1] [ng·h/mL]	Cmax [1] [ng/mL]	Tmax [1] [h]	microsomal CLint at 1 μmol/L [2] [µL/min/mg]	IC50 [3] [nM]	IC50 [4] [nM]
O=C(Nc1ccc(C(=O)N2CCC(F)(F)[C@](O)(CO)c3cc(Cl)ccc32)cn1)c1cccnc1C(F)(F)F [Example 66, N-{5-[(5R)-7-chloro-4,4-difluoro-5-hydroxy-5-(hydroxymethyl)-2,3,4,5-tetrahydro-1H-1-benzazepine-1-carbonyl]pyridin-2-yl}-2-(trifluoromethyl)pyridine-3-carboxamide]	38300	4550	1	< 4	21.1	3.5
O=C(Nc1ccc(C(=O)N2CCC(F)(F)[C@](O)(CO)c3cc(Cl)ccc32)cc1)c1cc(F)ccc1Cl [Example 23, 2-chloro-N-{4-[(5R)-7-chloro-4,4-difluoro-5-hydroxy-5-(hydroxymethyl)-2,3,4,5-tetrahydro-1H-1-benzazepine-1-carbonyl]phenyl}-5-fluorobenzamide]	71300	5420	4	1.11 ± 2.21	2.6	1
O=C(Nc1ccc(C(=O)N2CCC(F)(F)[C@](O)(CO)c3cc(Cl)ccc32)cc1F)c1cc(F)ccc1C(F)F [Example 157, N-{4-[(5R)-7-chloro-4,4-difluoro-5-hydroxy-5-(hydroxymethyl)-2,3,4,5-tetrahydro-1H-1-benzazepine-1-carbonyl]-2-fluorophenyl}-2-(difluoromethyl)-5-fluorobenzamide]	80500	6210	1	< 4	12	3.2
O=C(Nc1ccc(C(=O)N2CCC(F)(F)[C@](O)(CO)c3cc(Cl)ccc32)cc1)c1cc(F)ccc1-c1ccccc1F [Example 169, N-{4-[(5R)-7-chloro-4,4-difluoro-5-hydroxy-5-(hydroxymethyl)-2,3,4,5-tetrahydro-1H-1-benzazepine-1-carbonyl]phenyl}-2′,4-difluoro-[1,1′-biphenyl]-2-carboxamide]	32200	5650	1	5.09 ± 0.32	1.6	3.3
O=C(Nc1ccc(C(=O)N2CCC(F)(F)[C@](O)(CO)c3cc(Cl)ccc32)cn1)c1ccc(Cl)cc1Cl [Example 51, 2,4-dichloro-N-{5-[(5R)-7-chloro-4,4-difluoro-5-hydroxy-5-(hydroxymethyl)-2,3,4,5-tetrahydro-1H-1-benzazepine-1-carbonyl]pyridin-2-yl}benzamide]	53800	5070	1	< 4	16.1	1.7
O=C(Nc1ccc(C(=O)N2CCC(F)(F)[C@](O)(CO)c3cc(Cl)ccc32)cc1)c1cc(F)ccc1C(F)(F)F [Example 127, N-{4-[(5R)-7-chloro-4,4-difluoro-5-hydroxy-5-(hydroxymethyl)-2,3,4,5-tetrahydro-1H-1-benzazepine-1-carbonyl]phenyl}-5-fluoro-2-(trifluoromethyl)benzamide]	93800	7950	1	< 4	7.2	1.8
O=C(Nc1ccc(C(=O)N2CCC(F)(F)C(O)(CO)c3cc(Cl)ccc32)cn1)c1ccccc1C(F)(F)F (stereo not shown) [Example 2, N-{5-[7-chloro-4,4-difluoro-5-hydroxy-5-(hydroxymethyl)-2,3,4,5-tetrahydro-1H-1-benzazepine-1-carbonyl]pyridin-2-yl}-2-(trifluoromethyl)benzamide]	95700	9230	1	< 4	3.4	2.1
O=C(Nc1ccc(C(=O)N2CCC(F)(F)C(O)(CO)c3cc(Cl)ccc32)cn1)c1cc(F)ccc1Cl (stereo not shown) [Example 3, 2-chloro-N-{5-[7-chloro-4,4-difluoro-5-hydroxy-5-(hydroxymethyl)-2,3,4,5-tetrahydro-1H-1-benzazepine-1-carbonyl]pyridin-2-yl}-5-fluorobenzamide]	38900	4820	1	< 4	9.5	2.1
O=C(Nc1ccc(C(=O)N2CCC(F)(F)[C@](O)(CO)c3cc(Cl)ccc32)cn1)c1cccnc1-c1ccccc1 [Example 97, N-{5-[(5R)-7-chloro-4,4-difluoro-5-hydroxy-5-(hydroxymethyl)-2,3,4,5-tetrahydro-1H-1-benzazepine-1-carbonyl]pyridin-2-yl}-2-phenylpyridine-3-carboxamide]	8310	3130	1	6.98 ± 4.77	5.4	1.4
O=C(Nc1ccc(C(=O)N2CCC(F)(F)[C@](O)(CO)c3cc(Cl)ccc32)cn1)c1ccccc1-c1ccccc1 [Example 63, N-{5-[(5R)-7-chloro-4,4-difluoro-5-hydroxy-5-(hydroxymethyl)-2,3,4,5-tetrahydro-1H-1-benzazepine-1-carbonyl]pyridin-2-yl}-[1,1′-biphenyl]-2-carboxamide]	14400	4440	1	3.1 ± 3.58	1.4	1.1
O=C(Nc1ccc(C(=O)N2CCC(F)(F)[C@](O)(CO)c3cc(Cl)ccc32)cc1F)c1cc(F)ccc1Cl [Example 24, 2-chloro-N-{4-[(5R)-7-chloro-4,4-difluoro-5-hydroxy-5-(hydroxymethyl)-2,3,4,5-tetrahydro-1H-1-benzazepine-1-carbonyl]-2-fluorophenyl}-5-fluorobenzamide]	44000	4080	4	< 4	2.7	1.5
Cc1ccccc1C(=O)Nc1ccc(C(=O)N2CCCC(O)c3cc(Cl)ccc32)c(C)c1 (stereo not shown) [Tolvaptan, reference compound]	1780	682	1	105 ± 11		
